Results as given in patent US11414424B2, “Cardiac sarcomere inhibitors” (Cytokinetics, Inc., priority 2018, dated 2022).

What was measured:
male Sprague Dawley rats [1] = assay: Echocardiography assessment of acute pharmacodynamic effect on rat cardiac contractility, oral dosing; format: in vivo
Procedure: (§1) Assessment of in vivo cardiac function by echocardiography was performed in male Sprague Dawley rats under isoflurane (1-3%) anesthesia. 2-D M-mode images of the left ventricle were acquired in the parasternal long-axis view before, during, and after administration of compounds by continuous IV infusion or oral gavage. In vivo fractional shortening was determined by M-mode image analysis with the following calculation: ((End diastolic diameter−end systolic diameter)/end diastolic diameter×100). For continuous IV infusion experiments, three pre-dose baseline M-mode images were taken at 1 minute intervals prior to infusion of compound. Compounds were formulated in 50% Propylene Glycol (PG): 16% Captisol: 10% dimethylacetamide (DMA) and delivered via a jugular vein catheter at the rate of 1 mL/kg/h. During infusion, M-mode images were taken at 5 minute intervals. The infusion was stopped when fractional shortening reached up to a 60% reduction from baseline. Blood samples were taken to determine the plasma concentration of the compounds. Data were reported as an estimated IC50 value, which is the concentration at which fractional shortening is 50% of the pre-dose baseline contractility.
For oral dosing studies, three pre-dose baseline M-Mode images were taken at 1 minute intervals prior to compound administration. Compounds were formulated in a 0.5% hydroxypropyl methylcellulose 2910 (HPMC 2910): 0.1% Tween 80 suspension and delivered as a single dose (5 mL/kg) by oral gavage. At one and four hours post-dose, rats were lightly anesthetized for M-mode echocardiography measurement. The compound effect on cardiac fractional shortening are presented as a percent reduction of baseline fractional shortening (=100%) in Table D.
Concurrent with echocardiography measurements, blood samples are taken to determine the corresponding compound plasma concentration, which may be represented as IC50 and IC10 values, which is the concentration at which fractional shortening is 50% and 10% of the pre-dose baseline contractility, respectively.

male Sprague Dawley rats [2] = assay: Echocardiography assessment of acute pharmacodynamic effect on rat cardiac contractility, continuous IV infusion; format: in vivo; conditions: estimated plasma concentration at which fractional shortening is 50% of the pre-dose baseline contractility, read-out: IC50 (mean ± SD)
Procedure: as §1

[3] = system: adult cardiac ventricular rat myocytes; assay: Adult ventricular myocyte contractility (fractional shortening); format: cell-based; conditions: 5 μM, 5 min perfusion
Procedure: Adult male Sprague-Dawley rats were anesthetized and the hearts were quickly excised, rinsed and the ascending aorta was cannulated. Continuous retrograde perfusion was initiated on the hearts at a perfusion pressure of 60 cm H2O. Hearts were first perfused with a nominally Ca^2+-free modified Krebs solution of the following composition: 113 mM NaCl, 4.7 mM KCl, 0.6 mM KH2PO4, 0.6 mM Na2HPO4, 1.2 mM MgSO4, 12 mM NaHCO3, 10 mM KHCO3, 30 mM taurine, 5.5 mM glucose and 10 mM Hepes (all Sigma). This medium was not recirculated and was continually aerated with a 95% O2/5% CO2 mixture. After approximately 3 minutes, the heart was perfused with a modified Krebs buffer supplemented with collagenase (Worthington) and 12.5 μM final calcium concentration. The heart was removed from the cannulae after the heart appeared blanched and soft in appearance. The atria and vessels were removed and the ventricles were gently dissected into smaller pieces with forceps. The tissue was homogenized by repeated pipette trituration and the collagenase reaction was stopped by 10% bovine calf serum (BCS), sedimentation and resuspension in perfusion buffer containing 5% BCS and 12.5 uM CaCl2. Myocytes were made calcium tolerant by stepwise addition of a CaCl2 solution to a final concentration of 1.2 mM. Cells were then washed and resuspended in Tyrode's buffer (137 mM NaCl, 3.7 mM KCl, 0.5 mM MgCl, 11 mM glucose, 4 mM Hepes, and 1.2 mM CaCl2, pH 7.4). Cells were kept for 60 min at 37° C. prior to initiating experiments and used within 5 hrs of isolation. […] Additionally, only cells whose basal contractility was between 3 and 8% were used in subsequent experiments with compounds.
Aliquots of myocytes in Tyrode's buffer were placed in perfusion chambers (series 20 RC-27NE; Warner Instruments) complete with heating platforms. Myocytes were allowed to attach, the chambers were heated to 37° C., and the cells were perfused with 37° C. Tyrode's buffer. Myocytes were field stimulated at 1 Hz in with platinum electrodes (20% above threshold). Only cells that had clear striations and were quiescent prior to pacing were used for contractility experiments. To determine basal contractility, myocytes were imaged through a 40× objective. […] Once cell contraction was stable over time, test compounds (0.01-15 μM) were perfused into the chambers on the myocytes for 5 minutes. Contractility of the myocytes and contraction and relaxation velocities were then recorded using edge detection.
Five or more individual myocytes were tested per compound from two or more different myocyte preparations. For each cell, twenty or more contractility transients at basal (defined as 1 min prior to compound infusion) and after compound addition (defined as 5 min after starting compound perfusion), were averaged and compared. These average transients were analyzed using the IonWizard software (IonOptix) to determine changes in diastolic length and fractional shortening. Fractional shortening was calculated as: ((resting length−length at peak contraction) divided by the resting length). The percent change in fractional shortening from baseline was calculated as: ((post-dose fractional shortening/basal fractional shortening)*100). The percent reduction in fractional shortening from baseline was calculated as: (100−percent change in fractional shortening from baseline). Maximum contraction and relaxation velocities (um/sec) was also determined. Results from individual cells were averaged and the SEM was calculated.

[4] = system: bovine cardiac myofibrils; assay: Myofibril assay: PK/LDH-coupled steady-state ATPase activity of skinned bovine cardiac myofibrils; format: biochemical; conditions: Ca2+ activating to 75% of maximal rate
How it was run: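 Steady-state ATPase of detergent-skinned bovine left-ventricular myofibrils (1 mg/mL), PK/LDH-coupled NADH read at 340 nm, in PIPES/MgCl2 buffer pH 6.8 with 50 μM ATP, 0.6 mM EGTA and CaCl2 set for 50% or 75% activation. Inhibition of activity measured.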

## CC(=O)N1CC2(C1)C(=O)N(c1ccc(C#N)cc1F)CC(=O)N2Cc1ccc(C(F)(F)F)cc1 [Compound 202, 4-(2-acetyl-6,9-dioxo-5-[[4-(trifluoromethyl)phenyl]methyl]-2,5,8-triazaspiro[3.5]nonan-8-yl)-3-fluorobenzonitrile]
Male Sprague Dawley rats [1]; 3 mg/kg oral
  FS (% reduction from baseline) at 1 h (Mean ± SEM): 21.88 ± 2.66%
  FS (% reduction from baseline) at 4 h (Mean ± SEM): 11.25 ± 5.54%
Male Sprague Dawley rats [1]; 15 mg/kg oral
  FS (% reduction from baseline) at 1 h (Mean ± SEM): 51.08 ± 1.93%
  FS (% reduction from baseline) at 4 h (Mean ± SEM): 20.18 ± 3.59%
Male Sprague Dawley rats [2]
  IC50: 3.24 ± 0.07 µM
[3]
  % FS (% reduction from baseline) ± SEM: 68.4 ± 9.5%
[4]
  CDMF75 IC15: 0.8 µM
